SMILES strings stand for the structures. Active and inactive are the calls of the source. The calls are words filed in the database; no cut-off is given here.

Series [1] concerns Rattus norvegicus. The series is described as follows: Antifertility effect in Sprague-Dawley rat assessed as number of pregnant animals at 58 mg/kg, po administered postcoitally for 1 to 6 days. The class given is functional, organism-based. Set-up: dose 58 mg/kg.
The test system of series [2] is Mus musculus. The series is described as follows: Antifertility effect in CD1 mouse assessed as number of pregnant animals at 50 mg/kg, po administered postcoitally for 6 days. The class given is functional, organism-based. Details: dose 50 mg/kg.
Series [3] relates to Rattus norvegicus. As to the kind of experiment: Antifertility effect in Sprague-Dawley rat assessed as number of pregnant animals at 40 mg/kg, po administered postcoitally for 1 to 6 days. Set-up: dose 40 mg/kg. The format is functional, organism-based.
Series [4] has as its system Rattus norvegicus. The series is described as follows: Antifertility effect in Sprague-Dawley rat assessed as number of pregnant animals at 2 mg/kg administered postcoitally for 1 to 10 days. The class given is functional, organism-based. Set-up: dose 2 mg/kg.
Series [5] deals with Mus musculus. As to the kind of experiment: Antifertility effect in CD1 mouse assessed as number of pregnant animals at 100 mg/kg, po administered postcoitally for 6 days. The class given is functional, organism-based. Set-up: dose 100 mg/kg.
The subject of series [6] is Rattus norvegicus. As to the kind of experiment: Toxicity in Sprague-Dawley rat at 40 mg/kg. The format is organism-based. Details: dose 40 mg/kg. The conditions noted are these: in vivo.
A further series relates to Syrian golden hamster. As to the kind of experiment: Toxicity in golden syrian hamster at 25 mg/kg. The format is organism-based, Mesocricetus auratus. Details: dose 25 mg/kg. Particulars: in vivo.
For series [7], the system named is Rattus norvegicus. The series is described as follows: Antifertility effect in Sprague-Dawley rat assessed as number of pregnant animals at 40 mg/kg, po administered postcoitally for 1 to 10 days. The format is functional, organism-based. Set-up: dose 40 mg/kg.
Series [8] has as its system Rattus norvegicus. The series is described as follows: Antifertility effect in Sprague-Dawley rat assessed as number of pregnant animals at 10 mg/kg administered postcoitally for 1 to 10 days. Set-up: dose 10 mg/kg. The format is functional, organism-based.

As for `O=C1OC[C@H](Cc2ccc3c(c2)OCO3)/C1=C\c1ccc2c(c1)OCO2`, the result in the series with Rattus norvegicus [1] was inactive.

For `COC(=O)c1cc2c(c3c1ccc1c(OC)cccc13)OCO2`, the result in the series on Mus musculus [2] was inactive.

For `COc1cccc2c1ccc1c(C(=O)O)cc3c(c12)OCO3`, the result in the series on Rattus norvegicus [3] and in the series with Rattus norvegicus [4] was inactive.

As for `C[C@@H]1CCC[C@]23C[C@@H](CC[C@@]12C)[C@@](C)(O)C3`, the outcome with Mus musculus [5] was inactive.

`COc1cccc2c1cc([N+](=O)[O-])c1c(C(=O)O)cc3c(c12)OCO3` [ARISTOLOCHIC ACID]: the outcome in the series with Rattus norvegicus [6] and in the series with Syrian golden hamster was Active. In the series with Rattus norvegicus [7], the outcome was Active. For the same compound, the outcome in the series on Rattus norvegicus [8] was inactive.

Source of the values: ChEMBL document CHEMBL1151300, “Studies on Aristolochia III. Isolation and biological evaluation of constituents of Aristolochia indica roots for fertility-regulating activity” (J Nat Prod, 1984).
